Assay results taken from patent publication US9604961B2, “Histone demethylase inhibitors” (Celgene Quanticel Research, Inc., priority 2012, dated 2017).

Key:
Jarid1A = Jarid1A (Homo sapiens (Human), UniProt P29375); experiment: Jarid1A in vitro enzyme inhibition assay (TR-FRET); format: biochemical
Source text: The enzymatic assay of Jarid1A activity is based upon Time Resolved-Fluorescence Resonance Energy Transfer (TR-FRET) detection.

Jarid1B = Jarid1B (Homo sapiens (Human), UniProt Q9UGL1); experiment: Jarid1B in vitro enzyme inhibition assay (TR-FRET); format: biochemical
Experimental: (§1) This assay determines the ability of a test compound to inhibit Jarid1A, Jarid1B, JMJD2C, and JMJD2A demethylase activity.
The ability of test compounds to inhibit the activity of Jarid1B was determined in 384-well plate format under the following reaction conditions: 0.8 nM Jarid1B, 300 nM H3K4me3-biotin labeled peptide (Anaspec cat #64357), 2 μM alpha-ketoglutaric acid in assay buffer of 50 mM HEPES, pH7.3, 0.005% Brij35, 0.5 mM TCEP, 0.2 mg/ml BSA, 50 μM sodium L-ascorbate, and 2 μM ammonium iron(II) sulfate. Reaction product was determined quantitatively by TR-FRET after the addition of detection reagent Phycolink Streptavidin-allophycocyanin (Prozyme) and Europium-anti-mono- or di-methylated histone H3 lysine 4 (H3K4me1-2) antibody (PerkinElmer) in the presence of 5 mM EDTA in LANCE detection buffer (PerkinElmer) at a final concentration of 25 nM and 1 nM, respectively.
The assay reaction was initiated by the following: 2 μl of the mixture of 900 nM H3K4me3-biotin labeled peptide and 6 μM alpha-ketoglutaric acid with 2 μl of 11-point serial diluted inhibitor in 3% DMSO was added to each well of the plate, followed by the addition of 2 μl of 2.4 nM Jarid1B to initiate the reaction. The reaction mixture was incubated at room temperature for 30 minutes, and terminated by the addition of 6 μl of 5 mM EDTA in LANCE detection buffer containing 50 nM Phycolink Streptavidin-allophycocyanin and 2 nM Europium-anti-H3K4me1-2 antibody. Plates were read by EnVisionMultilabel Reader in TR-FRET mode (excitation at 320 nm, emission at 615 nm and 665 nm) after 1 hour incubation at room temperature. A ratio was calculated (665/615) for each well and fitted to determine inhibition constant (IC50).

JMJD2C = JMJD2C (Homo sapiens (Human), UniProt Q9H3R0); experiment: JMJD2C in vitro enzyme inhibition assay (TR-FRET); format: biochemical
Experimental: Baculovirus expressed JMJD2C (GenBank Accession #BC143571, AA 2-372) was purchased from BPS Bioscience (Cat#50105).
The ability of test compounds to inhibit the activity of JMJD2C was determined in 384-well plate format under the following reaction conditions: 0.3 nM JMJD2C, 300 nM H3K9me3-biotin labeled peptide (Anaspec cat #64360), 2 μM alpha-ketoglutaric acid in assay buffer of 50 mM HEPES, pH7.3, 0.005% Brij35, 0.5 mM TCEP, 0.2 mg/ml BSA, 50 μM sodium L-ascorbate, and 2 μM ammonium iron(II) sulfate. Reaction product was determined quantitatively by TR-FRET after the addition of detection reagent Phycolink Streptavidin-allophycocyanin (Prozyme) and Europium-anti-di-methylated histone H3 lysine 9 (H3K9me2) antibody (PerkinElmer) in the presence of 5 mM EDTA in LANCE detection buffer (PerkinElmer) at a final concentration of 50 nM and 1 nM, respectively.
The assay reaction was initiated by the following: 2 μl of the mixture of 900 nM H3K9me3-biotin labeled peptide and 6 μM alpha-ketoglutaric acid with 2 μl of 11-point serial diluted inhibitor in 3% DMSO were added to each well of the plate, followed by the addition of 2 μl of 0.9 nM JMJD2C to initiate the reaction. The reaction mixture was incubated at room temperature for 30 minutes, and terminated by the addition of 6 μl of 5 mM EDTA in LANCE detection buffer containing 100 nM Phycolink Streptavidin-allophycocyanin and 2 nM Europium-anti-H3K9me2 antibody. Plates were read by EnVisionMultilabel Reader in TR-FRET mode (excitation at 320 nm, emission at 615 nm and 665 nm) after 1 hour incubation at room temperature. A ratio was calculated (665/615) for each well and fitted to determine inhibition constant (IC50).

FBXL10 = FBXL10 (Homo sapiens (Human), UniProt Q8NHM5); experiment: FBXL10 in vitro enzyme inhibition assay (AlphaScreen); format: biochemical
How it was run: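 AlphaScreen read-out of H3K36me1 product, detected with anti-H3K36me1 antibody plus streptavidin donor and Protein A acceptor beads (final 10 μg/ml) in 50 mM HEPES pH 7.3, 10 mM NaCl, 0.005% Brij35, 5 mM EDTA, 2 mg/ml BSA. Beads incubated 2 h to overnight at room temperature; IC50 derived from AlphaScreen signal.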

KDM5A/B = experiment: In vitro cell-based assay: quantitative immuno-blotting of tri-methyl H3K4 in ZR-75-1 breast cancer cells; conditions: Homo sapiens, 72 hours exposure, read-out: Cellular IC50
Source text: This quantitative immuno-blotting assay measures the amount tri-methylated histone H3 at amino acid Lysine number 4, a specific substrate […] of the direct enzymatic activity of the histone demethylases KDM5A and KDM5B from extracts of the ZR-75-1 breast cancer cell line.
This assay is a fluorometric immunoassay for the quantification of tri-methyl H3K4 extracted from cells treated with test compound and is used as a measure of the cellular inhibition of KDM5A/B.
ZR-75-1 (PTEN null, ER+) breast cancer cells numbering 50,000 (ATCC) were seeded into each well of a 96-well tissue culture treated plate and then exposed to an 11 point dilution of test compound with final concentration ranges of test compound ranging from […] to 10 nM. […] Extracts were prepared containing all of the cellular histone material using detergent based lysis and sonication methods. These lysates were subsequently normalized for total protein content using a colorimetric bicinchonic acid assay (MicroBCA Pierce/Thermo Scientific). Normalized cell extracts were then subjected to typical immuno-blotting procedures using NuPage reagents (Life Technologies). Electrophoretically separated histones were then transferred and immobilized using polyvinylidene difluoride membrane (Immobilon-FL Millipore). The amount of tri-methylated lysine 4 of histone H3 was detected using an antibody specific to the tri-methylated state (Cell Signaling Technologies) and quantified on an infrared imager using a densitometry software package (Odyssey CLx, Image Studio, Li-Cor). This background subtracted densitometry value was reported as a ration of the GAPDH amount for that sample and then calculated as a percent of the DMSO treated sample. The software package XL-fit (IDBS) was then used to calculate a relative IC50 value for the dilution series of a given test compound according to the equation: fit=(D+((Vmax*(x^n))/((x^n)+(Km^n)))).

JMJD2A = JMJD2A (Homo sapiens (Human), UniProt O75164); experiment: JMJD2A in vitro enzyme inhibition assay (TR-FRET); conditions: read-out: JMJD2A IC50
JMJD2A, sequence (O75164 1-350): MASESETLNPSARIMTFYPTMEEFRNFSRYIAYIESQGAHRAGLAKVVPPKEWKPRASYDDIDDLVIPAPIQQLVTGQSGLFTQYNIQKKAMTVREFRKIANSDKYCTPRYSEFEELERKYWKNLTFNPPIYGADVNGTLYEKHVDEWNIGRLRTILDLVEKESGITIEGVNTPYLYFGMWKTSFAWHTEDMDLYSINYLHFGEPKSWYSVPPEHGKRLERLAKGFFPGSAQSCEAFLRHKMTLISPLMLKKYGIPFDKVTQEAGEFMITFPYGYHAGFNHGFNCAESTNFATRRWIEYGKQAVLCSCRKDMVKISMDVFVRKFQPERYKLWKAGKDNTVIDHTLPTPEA
Experimental: as §1
Reaction product was determined quantitatively by TR-FRET after the addition of detection reagent Phycolink Streptavidin-allophycocyanin (Prozyme) and Europium-anti-di-methylated histone H3 lysine 9 (H3K9me2) antibody (PerkinElmer) in the presence of 5 mM EDTA in LANCE detection buffer (PerkinElmer) at a final concentration of 50 nM and 1 nM, respectively.
The assay reaction was initiated by the following: 2 μl of the mixture of 900 nM H3K9me3-biotin labeled peptide and 6 μM alpha-ketoglutaric acid with 2 μl of 11-point serial diluted inhibitor in 3% DMSO were added to each well of plate, followed by the addition of 2 μl of 6 nM JMJD2A to initiate the reaction. The reaction mixture was incubated at room temperature for 30 minutes, and terminated by the addition of 6 μl of 5 mM EDTA in LANCE detection buffer containing 100 nM Phycolink Streptavidin-allophycocyanin and 2 nM Europium-anti-H3K9me2 antibody.

JMJD2C, sequence (Q9H3R0 2-372): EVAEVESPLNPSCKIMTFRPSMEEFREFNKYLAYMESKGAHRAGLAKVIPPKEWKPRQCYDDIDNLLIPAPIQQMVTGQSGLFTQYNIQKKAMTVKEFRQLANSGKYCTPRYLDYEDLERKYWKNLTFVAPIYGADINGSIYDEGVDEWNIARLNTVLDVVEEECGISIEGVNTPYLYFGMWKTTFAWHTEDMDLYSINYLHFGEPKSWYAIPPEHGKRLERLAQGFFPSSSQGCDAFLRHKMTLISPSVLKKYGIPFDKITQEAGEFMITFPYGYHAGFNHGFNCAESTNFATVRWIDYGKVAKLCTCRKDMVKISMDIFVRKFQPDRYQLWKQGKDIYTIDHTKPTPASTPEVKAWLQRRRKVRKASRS
FBXL10, sequence (Q8NHM5 1-650): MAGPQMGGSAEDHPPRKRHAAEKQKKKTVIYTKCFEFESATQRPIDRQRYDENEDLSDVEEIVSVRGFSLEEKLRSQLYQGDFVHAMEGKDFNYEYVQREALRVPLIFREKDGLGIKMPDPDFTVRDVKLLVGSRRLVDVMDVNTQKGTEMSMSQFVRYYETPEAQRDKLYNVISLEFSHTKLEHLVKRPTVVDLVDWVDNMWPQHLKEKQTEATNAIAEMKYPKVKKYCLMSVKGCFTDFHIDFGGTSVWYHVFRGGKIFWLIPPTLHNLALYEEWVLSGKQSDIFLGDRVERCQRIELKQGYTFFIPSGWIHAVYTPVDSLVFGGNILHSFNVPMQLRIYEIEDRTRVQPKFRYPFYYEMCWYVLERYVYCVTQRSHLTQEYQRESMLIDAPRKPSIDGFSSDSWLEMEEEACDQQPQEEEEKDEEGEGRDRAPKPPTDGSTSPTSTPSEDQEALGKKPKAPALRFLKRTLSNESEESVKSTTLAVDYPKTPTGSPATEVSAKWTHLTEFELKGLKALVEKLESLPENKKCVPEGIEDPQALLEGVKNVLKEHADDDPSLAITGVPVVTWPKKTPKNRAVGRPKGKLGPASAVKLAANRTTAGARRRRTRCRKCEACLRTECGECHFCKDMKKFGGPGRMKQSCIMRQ
Jarid1B, sequence (Q9UGL1 2-751): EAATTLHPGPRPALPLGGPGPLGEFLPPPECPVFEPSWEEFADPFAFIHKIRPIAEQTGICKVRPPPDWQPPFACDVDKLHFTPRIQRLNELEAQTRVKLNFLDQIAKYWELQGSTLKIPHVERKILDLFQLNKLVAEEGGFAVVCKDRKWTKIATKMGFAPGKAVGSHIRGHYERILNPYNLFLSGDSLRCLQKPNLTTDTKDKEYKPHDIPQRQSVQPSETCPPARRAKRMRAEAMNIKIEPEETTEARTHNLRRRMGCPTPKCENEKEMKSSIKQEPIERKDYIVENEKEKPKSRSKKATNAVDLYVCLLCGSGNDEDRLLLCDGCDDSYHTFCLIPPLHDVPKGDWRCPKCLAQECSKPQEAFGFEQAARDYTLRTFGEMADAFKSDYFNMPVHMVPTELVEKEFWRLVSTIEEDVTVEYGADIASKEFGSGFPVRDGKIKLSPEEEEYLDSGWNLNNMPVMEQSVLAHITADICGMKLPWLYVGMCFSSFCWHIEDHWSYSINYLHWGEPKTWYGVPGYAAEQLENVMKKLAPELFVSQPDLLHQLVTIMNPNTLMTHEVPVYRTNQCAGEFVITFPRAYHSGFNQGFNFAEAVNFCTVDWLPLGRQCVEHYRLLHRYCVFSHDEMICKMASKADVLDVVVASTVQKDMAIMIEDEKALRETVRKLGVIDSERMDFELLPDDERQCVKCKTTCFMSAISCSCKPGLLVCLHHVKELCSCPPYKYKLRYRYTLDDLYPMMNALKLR
Jarid1A, sequence (P29375 1-1090): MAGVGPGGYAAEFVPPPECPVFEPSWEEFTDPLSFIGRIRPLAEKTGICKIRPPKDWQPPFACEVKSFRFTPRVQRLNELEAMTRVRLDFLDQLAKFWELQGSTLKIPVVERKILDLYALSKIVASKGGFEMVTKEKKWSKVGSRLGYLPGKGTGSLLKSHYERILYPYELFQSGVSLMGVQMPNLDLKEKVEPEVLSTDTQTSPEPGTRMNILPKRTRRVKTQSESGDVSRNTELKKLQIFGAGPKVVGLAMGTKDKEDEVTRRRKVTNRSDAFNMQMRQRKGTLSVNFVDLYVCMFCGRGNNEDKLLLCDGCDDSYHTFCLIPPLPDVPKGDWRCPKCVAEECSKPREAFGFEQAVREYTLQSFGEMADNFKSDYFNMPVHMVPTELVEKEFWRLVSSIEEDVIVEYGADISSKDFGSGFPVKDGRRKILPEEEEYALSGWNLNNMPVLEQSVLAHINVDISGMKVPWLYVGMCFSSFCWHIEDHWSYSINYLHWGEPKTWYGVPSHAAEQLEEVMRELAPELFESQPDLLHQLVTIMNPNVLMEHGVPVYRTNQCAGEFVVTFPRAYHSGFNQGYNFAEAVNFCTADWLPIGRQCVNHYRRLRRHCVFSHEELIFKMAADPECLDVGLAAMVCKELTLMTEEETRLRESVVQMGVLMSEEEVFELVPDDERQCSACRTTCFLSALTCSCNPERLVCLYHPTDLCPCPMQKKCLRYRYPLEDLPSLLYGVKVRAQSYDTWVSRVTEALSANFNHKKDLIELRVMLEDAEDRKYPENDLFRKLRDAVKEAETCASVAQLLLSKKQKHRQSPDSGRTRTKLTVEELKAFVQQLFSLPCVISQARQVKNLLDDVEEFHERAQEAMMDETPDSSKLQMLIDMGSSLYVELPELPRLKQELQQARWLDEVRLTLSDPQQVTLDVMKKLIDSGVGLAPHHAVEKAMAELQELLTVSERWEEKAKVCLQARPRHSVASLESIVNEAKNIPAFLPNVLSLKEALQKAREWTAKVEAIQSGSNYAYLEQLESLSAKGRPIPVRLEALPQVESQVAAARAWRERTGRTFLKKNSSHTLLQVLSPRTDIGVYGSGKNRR

Structure (SMILES)	IC50 (Jarid1A) [nM]	IC50 (Jarid1B) [nM]	IC50 (JMJD2C) [nM]	IC50 (FBXL10) [nM]	IC50 (KDM5A/B) [nM]	IC50 (JMJD2A) [nM]
O=C(O)c1ccnc(-n2nccc2OCc2ccc(Cl)cc2OCc2ccc(F)cc2)c1 [Example 117, 2-[5-[[4-chloro-2-[(4-fluorophenyl)methoxy]phenyl]methoxy]pyrazol-1-yl]pyridine-4-carboxylic acid]	100 to 1000	100 to 1000	1000 to 10000	1000 to 10000	1000 to 10000	1000 to 10000
COc1cc(C)ccc1COc1ccnn1-c1cc(C(=O)O)ccn1 [Example 133, 2-[5-[(2-methoxy-4-methylphenyl)methoxy]pyrazol-1-yl]pyridine-4-carboxylic acid]	< 100	< 100	100 to 1000	1000 to 10000	100 to 1000	100 to 1000
Cc1cc(Cl)ccc1COc1ccnn1-c1cc(C(=O)O)ccn1 [Example 89, 2-[5-[(4-chloro-2-methylphenyl)methoxy]pyrazol-1-yl]pyridine-4-carboxylic acid]	< 100	< 100	100 to 1000	100 to 1000	< 100	
